# Where a SMILES comes first, the peptide text is derived from it. The star is where a group is joined. Cbz = O=C(OCc1ccccc1)*
# Key:
# [1] = tested on: Fyn; assay: Fyn turnover, cycloheximide / MG132; assay type: cell-based, human; details: HeLa, n = 3
# Protocol: (§1) To assess this, HeLa cells were transfected with NMT1/2 siRNA or left untreated and analysed after addition of cycloheximide (8 h) to block protein synthesis or MG132 (4 h) to inhibit proteasomal degradation.
# (§2) 124 Supplementary Fig. 5. NMT1/2 knockdown leads to an increased turnover of SFKs
# (§3) 125 and overexpression of DCAF10 reduces SFK levels after NMT1/2 knockdown. […]
# (§4) 130 overexpression. Untreated: purple; with NMT1/2 RNAi: blue. Individual data points are
# (§5) 131 indicated (n = 2 or 3 independent biological replicates). MG132 = proteasome inhibitor;
# (§6) 132 CHX = cycloheximide translational inhibitor. d) HeLa cells were treated for 72 h with and
# (§7) 133 without NMT1/2 siRNA and treated with cycloheximide or MG132 for the indicated
# (§8) 134 periods of time. Representative WBs are shown. Filled circles indicate treatment; empty
# (§9) 135 circles indicate no treatment. e-h) Fold-change analysis of protein expression levels under
# (§10) 136 the indicated conditions. Left: fold change after 8 h cycloheximide treatment of (e) Lyn,
# (§11) 137 (f) Fyn, (g) Src and (h) THOC7. […]
# 410 HeLa, DLD-1 and all thereof derived stable cell lines, and RPE-1 cells were grown in
# 412 serum (FBS). Cells were counted and diluted to 100,000 cells/mL. For siRNA
# (§12) 413 knockdown, the transfection reagent Lipofectamine RNAiMAX (Invitrogen, Thermo
# (§13) 414 Fisher Scientific, Waltham, MA, USA) was used at a final dilution of 1:333 (3 μL/mL of
# 415 medium). […]
# [2] = tested on: Src; assay: Src turnover, cycloheximide / MG132; assay type: cell-based, human; details: HeLa, n = 3
# Protocol: as §1, §2, §3, §4, §5, §6, §7, §8, §9, §10, §11, §12, §13
# (§14) 415 medium). Pools of siRNAs, including siNMT1, siNMT2, siDCAF10, siZYG11B, and
# (§15) 416 siZER1, or combinations of different siRNAs, were reverse transfected at a concentration […]
# [3] = tested on: Lyn; assay: Lyn turnover, cycloheximide / MG132; assay type: cell-based, human; details: HeLa, n = 3
# Protocol: as §1, §2, §3, §4, §5, §6, §7, §8, §9, §10, §11, §12, §13, §14, §15
# [4] = tested on: THOC7; assay: THOC7 turnover, cycloheximide / MG132; assay type: cell-based, human; details: NMT1/2 KD, HeLa, n = 3, 'unaffected'
# Protocol: as §1, §2, §3, §4, §5, §6, §7, §8, §9, §10, §11, §12, §13, §14, §15
# [5] = tested on: ZYG11B; assay: Peptide pull-down with quantitative MS, HeLa lysate, ZYG11B; assay type: binding, human (HeLa); details: Nt-Ac vs Nt-free peptides
# Protocol: Biotinylated 10-mer Nt-peptides (Nt-free, Nt-acetylated, and, where indicated, Nt-myristoylated; sequences in Supplementary Table 1) were synthesized with a C-terminal Lys3 spacer and biotin, immobilized on magnetic streptavidin beads, and incubated with HeLa or mouse liver lysates. After standardized washes, bound proteins were on-bead reduced/alkylated, digested with LysC/trypsin, desalted, and analysed by LC-MS in DIA mode (Orbitrap Exploris 480) as described previously. Variants included endogenous Nt-sequences, swap and mutant (Ala-Ala-Ala or Nt-amino acids) peptides, and pairwise comparisons of conditions of interest. Full buffer compositions, bead loading, wash schemes, and MS parameters are provided in the Supplementary Methods.
# 203 Supplementary Methods
# 205 Peptide sequences are listed in Supplementary Table 1. Peptide pull-downs were
# Briefly, magnetic streptavidin beads (DynabeadsTM
# Beads were then washed three times with PBS. After
# 210 washing, 1 mg of HeLa lysates or 2 mg of liver lysates was taken, and lysis buffer (75
# Lysates were incubated with streptavidin
# HeLa pull-downs were washed twice with lysis buffer and twice
# Liver pulldowns were washed twice with cold low salt buffer (50 mM
# 220 individually ventilated cages under a 12-h light/dark cycle and were provided with sterile
# All procedures were performed
# No animal procedures were performed specifically for this […]
# [6] = tested on: Fyn; assay: In vitro ubiquitination of immunoprecipitated Fyn; assay type: biochemical, human; details: 250 nM E3 complex, n = 3
# Excerpt: (§16) Having established cellular regulation by DCAF10 under reduced N-myristoylation, we aimed to test whether CUL4A-DDB1-DCAF10 directly ubiquitinates SFKs. […] As we expect NMT1/2 depletion to cause a destabilization of SFKs, their equal or even greater ubiquitination in IPs from untreated cells relative to NMT1/2-depleted cells was unanticipated. We speculate that (i) Nt-acetylated SFKs may degrade rapidly, preventing their accumulation upon NMT1/2 depletion; (ii) an acetylated fraction of SFKs may exist under physiological conditions; (iii) DCAF10 might recognize additional surfaces.
# (§17) Reactions contained E1, UBCH5B (E2), ubiquitin, Mg-ATP in ligation buffer and were incubated with bead-bound substrates, followed by washing and immunoblot detection of ubiquitinated species (anti-ubiquitin), with loading controls (anti-Lyn, -Fyn, -Src or -GFP) (n = 3 independent enzymatic assays). Complete reagent lists, complex preparation, substrate IP conditions, wash buffers, and gel/blot parameters are provided in the Supplementary Methods and Tables.
# (§18) 357 (v/v) glycerol, 2 mM TCEP, supplemented with Protease Inhibitor Cocktail), and lysed
# (§19) 358 by sonication. Lysates were cleared by centrifugation at 28,000 rpm for 45 min at 4 °C […]
# (§20) 382 EDTA, and loaded on a gradient gel (4–15%). Ubiquitination of substrates was assessed
# (§21) 383 by WB using an anti-ubiquitin antibody. Equal substrate loading was evaluated by anti- […]
# [7] = tested on: Src; assay: In vitro ubiquitination of immunoprecipitated Src; assay type: biochemical, human; details: 250 nM E3 complex, n = 3
# Excerpt: as §16, §17, §18, §19, §20, §21
# [8] = tested on: Lyn; assay: In vitro ubiquitination of immunoprecipitated Lyn; assay type: biochemical, human; details: 250 nM E3 complex, 1 h 30°C, Ub normalized to bait, n = 3
# Excerpt: as §16, §17, §18, §19, §20, §21
# [9] = cycloheximide 100 µg/mL 8 h, NMT1/2 KD relative to cycloheximide-treated control
# [10] = IP from NMT1/2-depleted HeLa cells
molecule,measurement,setting,value
CC(C)C[C@@H](C=O)NC(=O)[C@H](CC(C)C)NC(=O)[C@H](CC(C)C)NC(=O)OCc1ccccc1 [MG132] (Cbz-Leu-Leu-Leu-aldehyde),Fyn increase,"[1]; MG132 10 µM 4 h, NMT1/2 KD",1.6 fold
same,Src increase,"[2]; MG132 10 µM 4 h, NMT1/2 KD",2 fold
same,Lyn increase,"[3]; MG132 10 µM 4 h, NMT1/2 KD",1.6 fold
same,THOC7 increase,[4]; MG132 10 µM 4 h,1.1 fold
"GAPATRRCVEKK [Nt-free TMEM97, Nt-peptide of TMEM97, Nt-free]",ZYG11B binding (in words),[5],ZYG11B binding only to the Nt-free peptide of TMEM97
C[C@@H]1C[C@@H]([C@H](O)CC2CC(=O)NC(=O)C2)C(=O)[C@@H](C)C1 [Cycloheximide],Fyn decrease,[1]; [9],1.5 fold
same,Src decrease,[2]; [9],1.3 fold
same,Lyn decrease,[3]; [9],2 fold
same,THOC7 decrease,[4]; cycloheximide 100 µg/mL 8 h,1.1 fold
"WT: catalytically active E3 ligase complex of full-length CUL4A, DDB1, DCAF10 and RBX1","Fyn ubiquitination, ratio relative to RBX1^mut",[6]; [10],2.27 fold
same,"Fyn ubiquitination, ratio relative to RBX1^mut",[6]; IP from control HeLa cells,2.73 fold
same,"Src ubiquitination, ratio relative to RBX1^mut",[7]; [10],2.03 fold
same,"Src ubiquitination, ratio relative to RBX1^mut",[7]; IP from control HeLa cells,3.0 fold
same,"Lyn ubiquitination, ratio relative to RBX1^mut",[8]; [10],2.18 fold
same,"Lyn ubiquitination, ratio relative to RBX1^mut",[8]; IP from control HeLa cells,2.58 fold
